From ChEMBL document CHEMBL4118135, “Optimized allosteric inhibition of engineered protein tyrosine phosphatases with an expanded palette of biarsenical small molecules” (Bioorg Med Chem, 2018)
Numbering of substitutions follows the chain as printed. Activity calls are given as the source filed them. The rule behind the calls is not given here.

Legend:
[1] = tested on: Tyrosine-protein phosphatase non-receptor type 7 (Homo sapiens), P35236 [UNDEFINED MUTATION]; test: Inhibition of allosterically sensitized mutant form of His6-tagged human wild-type HePTP catalytic domain at 1.92 uM using pNPP as substrate incubated for 90 mins by quenched phosphatase activity assay
[2] = tested on: T1, Tyrosine-protein phosphatase non-receptor type 7 (Homo sapiens), P35236 [P171C,V205C]; test: Inhibition of allosterically sensitized mutant form of His6-tagged human HePTP catalytic domain at 500 nM using pNPP as substrate incubated for 90 mins by quenched phosphatase activity assay
T1 sequence (whole entry): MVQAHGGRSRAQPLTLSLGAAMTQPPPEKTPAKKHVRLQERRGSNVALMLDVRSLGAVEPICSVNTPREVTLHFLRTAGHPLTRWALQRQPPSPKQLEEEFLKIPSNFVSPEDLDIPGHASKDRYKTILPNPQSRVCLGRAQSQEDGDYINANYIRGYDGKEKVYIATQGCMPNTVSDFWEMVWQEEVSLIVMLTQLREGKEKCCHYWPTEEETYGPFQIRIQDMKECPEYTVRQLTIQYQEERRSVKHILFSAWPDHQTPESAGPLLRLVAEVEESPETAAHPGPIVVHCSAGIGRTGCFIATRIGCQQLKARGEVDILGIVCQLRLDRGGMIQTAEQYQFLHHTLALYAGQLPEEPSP

[3] = biological target: T2, Tyrosine-protein phosphatase non-receptor type 7 (Homo sapiens) (UniProt P35236); test: Inhibition of His6-tagged human wild-type HePTP catalytic domain at 1 uM using pNPP as substrate incubated for 90 mins by quenched phosphatase activity assay
T2 sequence (whole entry): T1 sequence (whole entry) with C171P, C205V

Homo sapiens = species: Homo sapiens; test: Inhibition of His6-tagged human wild-type PTP catalytic domain at 500 nM using pNPP as substrate incubated for 90 mins by quenched phosphatase activity assay
[4] = biological target: Tyrosine-protein phosphatase non-receptor type 13 (Homo sapiens) (UniProt Q12923); test: Inhibition of allosterically sensitized mutant form of His6-tagged human FAP1 catalytic domain at 500 nM using pNPP as substrate incubated for 90 mins by quenched phosphatase activity assay
[5] = tested on: T1, Tyrosine-protein phosphatase non-receptor type 7 (Homo sapiens), P35236 [P171C,V205C]; test: Inhibition of allosterically sensitized mutant form of His6-tagged human HePTP catalytic domain at 1 uM using pNPP as substrate measured up to 10 mins by quenched phosphatase activity assay
[6] = tested on: T1, Tyrosine-protein phosphatase non-receptor type 7 (Homo sapiens), P35236 [P171C,V205C]; test: Inhibition of allosterically sensitized mutant form of His6-tagged human HePTP catalytic domain using pNPP as substrate incubated for 90 mins by quenched phosphatase activity assay
[7] = tested on: T3, Tyrosine-protein phosphatase non-receptor type 1 (Homo sapiens), P18031 [P87C,A122C]; test: Inhibition of allosterically sensitized His6-tagged human PTP1B catalytic domain P87C/A122C mutant at 250 nM using pNPP as substrate incubated for 90 mins by quenched phosphatase activity assay
T3 sequence (whole entry): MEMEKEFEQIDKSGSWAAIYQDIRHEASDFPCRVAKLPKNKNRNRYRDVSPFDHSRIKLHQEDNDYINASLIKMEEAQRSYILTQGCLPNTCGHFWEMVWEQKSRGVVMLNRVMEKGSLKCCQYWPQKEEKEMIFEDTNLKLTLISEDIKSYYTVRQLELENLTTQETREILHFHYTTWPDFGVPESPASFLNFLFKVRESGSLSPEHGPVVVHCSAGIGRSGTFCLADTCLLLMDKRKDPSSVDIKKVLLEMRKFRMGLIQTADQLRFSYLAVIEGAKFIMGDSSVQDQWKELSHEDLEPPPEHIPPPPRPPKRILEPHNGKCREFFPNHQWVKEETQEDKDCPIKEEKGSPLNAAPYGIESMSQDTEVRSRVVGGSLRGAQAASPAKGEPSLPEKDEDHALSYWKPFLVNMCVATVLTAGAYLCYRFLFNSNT

[8] = biological target: Tyrosine-protein phosphatase non-receptor type 6 (Homo sapiens) (UniProt P29350); test: Inhibition of allosterically sensitized mutant form of His6-tagged human SHP1 catalytic domain at 500 nM using pNPP as substrate incubated for 90 mins by quenched phosphatase activity assay
[9] = biological target: T4, Tyrosine-protein phosphatase non-receptor type 11 (Homo sapiens) (UniProt Q06124); test: Inhibition of allosterically sensitized mutant form of His6-tagged human SHP2 containing SHP1 and […] SH2 domain at 500 nM at 500 nM using pNPP as substrate incubated for 90 mins by quenched phosphatase activity assay
T4 sequence (whole entry): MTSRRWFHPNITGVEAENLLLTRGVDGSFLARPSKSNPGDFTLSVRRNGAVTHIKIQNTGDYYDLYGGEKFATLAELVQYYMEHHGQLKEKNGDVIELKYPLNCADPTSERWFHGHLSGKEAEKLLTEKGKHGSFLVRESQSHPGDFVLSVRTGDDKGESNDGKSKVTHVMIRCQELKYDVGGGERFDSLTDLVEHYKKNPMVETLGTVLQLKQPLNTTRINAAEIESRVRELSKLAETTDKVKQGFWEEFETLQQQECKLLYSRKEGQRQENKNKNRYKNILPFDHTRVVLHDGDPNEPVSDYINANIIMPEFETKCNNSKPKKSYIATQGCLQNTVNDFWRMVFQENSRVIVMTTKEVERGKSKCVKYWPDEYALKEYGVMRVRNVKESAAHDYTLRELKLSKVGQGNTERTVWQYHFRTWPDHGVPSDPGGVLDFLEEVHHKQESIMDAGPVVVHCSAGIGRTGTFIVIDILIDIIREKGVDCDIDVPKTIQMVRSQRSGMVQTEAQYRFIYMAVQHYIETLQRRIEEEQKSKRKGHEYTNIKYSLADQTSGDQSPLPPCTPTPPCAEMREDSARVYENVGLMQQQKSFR

[10] = biological target: T4, Tyrosine-protein phosphatase non-receptor type 11 (Homo sapiens); test: Inhibition of allosterically sensitized mutant form of His6-tagged human SHP2 catalytic domain at 500 nM at 500 nM using pNPP as substrate incubated for 90 mins by quenched phosphatase activity assay

Sequence of Tyrosine-protein phosphatase non-receptor type 7 (Homo sapiens), P35236 [UNDEFINED MUTATION] (P35236 whole entry, looked up, stated change not applied, the tested form may be a part): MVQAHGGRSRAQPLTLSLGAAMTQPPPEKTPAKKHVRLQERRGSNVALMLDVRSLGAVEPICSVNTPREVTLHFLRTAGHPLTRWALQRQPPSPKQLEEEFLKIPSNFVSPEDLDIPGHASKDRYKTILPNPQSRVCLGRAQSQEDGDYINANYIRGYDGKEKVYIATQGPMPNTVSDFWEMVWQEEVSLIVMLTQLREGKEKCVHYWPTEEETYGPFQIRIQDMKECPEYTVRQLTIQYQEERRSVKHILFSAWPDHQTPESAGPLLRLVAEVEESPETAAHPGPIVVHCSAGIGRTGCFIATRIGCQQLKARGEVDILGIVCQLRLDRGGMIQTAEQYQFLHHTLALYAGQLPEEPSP
Sequence of Tyrosine-protein phosphatase non-receptor type 6 (Homo sapiens) (P29350 whole entry, the tested form may be a part): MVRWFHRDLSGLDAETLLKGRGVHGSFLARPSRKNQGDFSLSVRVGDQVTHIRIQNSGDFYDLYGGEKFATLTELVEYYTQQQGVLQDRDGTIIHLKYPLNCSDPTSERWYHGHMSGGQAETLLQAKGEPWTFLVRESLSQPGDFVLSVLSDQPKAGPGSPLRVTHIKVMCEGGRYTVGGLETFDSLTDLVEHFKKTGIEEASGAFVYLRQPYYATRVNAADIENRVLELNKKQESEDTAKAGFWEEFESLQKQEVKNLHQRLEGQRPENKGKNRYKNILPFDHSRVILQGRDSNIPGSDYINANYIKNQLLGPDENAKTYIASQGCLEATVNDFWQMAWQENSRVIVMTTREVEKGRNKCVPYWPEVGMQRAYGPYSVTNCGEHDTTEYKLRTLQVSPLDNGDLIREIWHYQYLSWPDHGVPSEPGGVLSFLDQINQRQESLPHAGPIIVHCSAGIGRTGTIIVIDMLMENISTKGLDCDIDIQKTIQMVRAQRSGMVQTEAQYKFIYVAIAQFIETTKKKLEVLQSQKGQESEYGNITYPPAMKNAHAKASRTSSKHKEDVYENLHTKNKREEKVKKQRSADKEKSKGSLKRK
Sequence of Tyrosine-protein phosphatase non-receptor type 13 (Homo sapiens) (Q12923 whole entry, the tested form may be a part): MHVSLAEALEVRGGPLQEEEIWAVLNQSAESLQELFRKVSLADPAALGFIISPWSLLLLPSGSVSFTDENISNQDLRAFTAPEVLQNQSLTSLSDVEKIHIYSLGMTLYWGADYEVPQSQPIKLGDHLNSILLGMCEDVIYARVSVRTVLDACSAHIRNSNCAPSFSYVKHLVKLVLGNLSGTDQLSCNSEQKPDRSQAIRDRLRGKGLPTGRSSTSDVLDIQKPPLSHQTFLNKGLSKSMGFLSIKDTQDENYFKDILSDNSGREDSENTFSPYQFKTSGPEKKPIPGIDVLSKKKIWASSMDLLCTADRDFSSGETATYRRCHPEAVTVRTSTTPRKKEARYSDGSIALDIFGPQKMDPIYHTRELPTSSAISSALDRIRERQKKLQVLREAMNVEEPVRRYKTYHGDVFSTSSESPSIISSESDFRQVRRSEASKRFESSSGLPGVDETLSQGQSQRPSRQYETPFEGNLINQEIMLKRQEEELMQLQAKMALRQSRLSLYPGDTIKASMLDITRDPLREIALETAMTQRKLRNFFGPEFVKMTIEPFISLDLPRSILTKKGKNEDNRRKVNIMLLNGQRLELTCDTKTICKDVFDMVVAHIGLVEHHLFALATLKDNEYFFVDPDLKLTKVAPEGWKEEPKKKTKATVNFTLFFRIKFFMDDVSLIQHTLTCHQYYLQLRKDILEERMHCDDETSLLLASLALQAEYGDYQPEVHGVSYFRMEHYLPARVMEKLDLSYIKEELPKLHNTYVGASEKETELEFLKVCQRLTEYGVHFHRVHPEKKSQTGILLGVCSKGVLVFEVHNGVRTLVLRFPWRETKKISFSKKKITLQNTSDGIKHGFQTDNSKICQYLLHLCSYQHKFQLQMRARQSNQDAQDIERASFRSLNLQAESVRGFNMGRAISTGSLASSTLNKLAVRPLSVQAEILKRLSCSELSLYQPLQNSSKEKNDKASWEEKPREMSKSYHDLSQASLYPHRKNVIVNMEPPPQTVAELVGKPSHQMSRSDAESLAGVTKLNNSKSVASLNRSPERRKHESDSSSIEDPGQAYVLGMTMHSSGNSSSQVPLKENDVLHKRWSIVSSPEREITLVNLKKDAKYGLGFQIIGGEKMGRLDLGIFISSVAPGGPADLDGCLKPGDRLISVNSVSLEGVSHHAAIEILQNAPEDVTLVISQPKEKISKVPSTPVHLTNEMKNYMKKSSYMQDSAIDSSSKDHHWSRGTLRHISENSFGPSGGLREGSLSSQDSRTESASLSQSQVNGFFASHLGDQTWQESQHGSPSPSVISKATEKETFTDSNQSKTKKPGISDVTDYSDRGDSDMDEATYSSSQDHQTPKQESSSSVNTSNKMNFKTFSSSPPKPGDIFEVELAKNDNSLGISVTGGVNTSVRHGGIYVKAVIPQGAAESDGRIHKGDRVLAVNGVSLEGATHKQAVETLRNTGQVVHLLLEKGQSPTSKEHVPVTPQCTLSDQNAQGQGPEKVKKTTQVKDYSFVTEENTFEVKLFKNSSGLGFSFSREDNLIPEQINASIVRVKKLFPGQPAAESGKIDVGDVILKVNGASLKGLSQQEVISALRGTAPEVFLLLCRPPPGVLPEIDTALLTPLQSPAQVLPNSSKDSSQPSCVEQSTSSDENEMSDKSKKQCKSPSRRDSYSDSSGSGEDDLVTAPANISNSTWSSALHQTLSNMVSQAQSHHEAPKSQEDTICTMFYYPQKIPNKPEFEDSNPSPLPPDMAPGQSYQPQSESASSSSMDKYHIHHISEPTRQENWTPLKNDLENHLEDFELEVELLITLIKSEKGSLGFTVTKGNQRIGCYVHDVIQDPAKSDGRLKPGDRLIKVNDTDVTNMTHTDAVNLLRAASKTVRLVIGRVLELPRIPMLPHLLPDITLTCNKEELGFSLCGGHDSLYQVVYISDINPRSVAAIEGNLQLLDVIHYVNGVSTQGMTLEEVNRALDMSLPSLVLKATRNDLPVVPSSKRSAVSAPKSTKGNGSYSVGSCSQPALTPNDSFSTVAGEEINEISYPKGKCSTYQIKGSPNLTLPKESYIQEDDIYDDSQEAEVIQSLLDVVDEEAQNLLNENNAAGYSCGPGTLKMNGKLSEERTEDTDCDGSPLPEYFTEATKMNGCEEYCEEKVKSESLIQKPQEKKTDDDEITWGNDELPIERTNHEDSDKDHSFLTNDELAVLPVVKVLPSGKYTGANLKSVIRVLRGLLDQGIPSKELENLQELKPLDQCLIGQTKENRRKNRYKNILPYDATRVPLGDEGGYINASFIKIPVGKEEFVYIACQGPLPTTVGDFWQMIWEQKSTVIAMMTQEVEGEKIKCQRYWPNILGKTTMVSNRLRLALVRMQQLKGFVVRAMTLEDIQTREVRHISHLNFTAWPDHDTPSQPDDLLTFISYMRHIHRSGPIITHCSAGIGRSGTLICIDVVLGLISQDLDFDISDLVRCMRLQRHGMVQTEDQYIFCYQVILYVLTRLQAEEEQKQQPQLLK

O=C(O)c1ccc(-c2c3ccc(=O)c([As]4SCCS4)c-3oc3c([As]4SCCS4)c(O)ccc23)c(C(=O)O)c1
inhibition [1]: Active

O=c1ccc2nc3ccc(O)c([As]4SCCS4)c3oc-2c1[As]1SCCS1
inhibition [2]: Active | inhibition [3]: inactive | inhibition (Homo sapiens): Active | inhibition [4]: Active | inhibition [5]: 50% | inhibition [6]: Dose-dependent effect | inhibition [7]: Active | inhibition [8]: Active

O=C(O)c1ccccc1-c1c2cc(F)c(=O)c([As]3SCCS3)c-2oc2c([As]3SCCS3)c(O)c(F)cc12
inhibition [1]: Active

O=C(O)c1ccccc1-c1c2cc(Cl)c(=O)c([As]3SCCS3)c-2oc2c([As]3SCCS3)c(O)c(Cl)cc12
inhibition [1]: Active

CC1(C)C(/C=C/C=C/C=C2/N(CCCCS(=O)(=O)O)c3ccc([As]4SCCS4)cc3C2(C)C)=[N+](CCCCS(=O)(=O)O)c2ccc([As]3SCCS3)cc21
inhibition [2]: Active | inhibition (Homo sapiens): Active | inhibition [4]: Active | inhibition [9]: inactive | inhibition [10]: inactive | inhibition [7]: Active | inhibition [8]: Active

O=C(O)c1c(F)c(F)c(F)c(F)c1-c1c2ccc(=O)c([As]3SCCS3)c-2oc2c([As]3SCCS3)c(O)ccc12
inhibition [1]: Active

CCc1cc2c(-c3ccccc3C(=O)O)c3cc(CC)c(=O)c([As]4SCCS4)c-3oc2c([As]2SCCS2)c1O
inhibition [1]: Active

CCCCNC(=O)c1ccc(-c2c3ccc(=O)c([As]4SCCS4)c-3oc3c([As]4SCCS4)c(O)ccc23)c(C(=O)O)c1
inhibition [1]: Active
